Like-named read-outs stand apart in the source and are kept apart here.
System: PABPC1 PABC
Type: binding, human
Conditions: DMS-BM library, bait PABPC1 PABC, row aa = residue at this position; for DMS-derived PSSM value (averaged), position L2: L = wild type
[1] = prey ATXN2, peptide KSTLNPNAKEFNPRSF, S = wild type
[2] = prey ATXN2, peptide KSTLNPNAKEFNPRSF, N = wild type
[3] = prey ATXN2, TLNPNAKEFNPRSF(averaged) over the two overlapping peptides, N = wild type
[4] = prey ATXN2, peptide KSTLNPNAKEFNPRSF, P = wild type
[5] = prey ATXN2, TLNPNAKEFNPRSF(averaged) over the two overlapping peptides, P = wild type
[6] = prey ATXN2, TLNPNAKEFNPRSF(averaged) over the two overlapping peptides, F = wild type
[7] = prey ATXN2, TLNPNAKEFNPRSF(averaged) over the two overlapping peptides, E = wild type
[8] = prey ATXN2, peptide TLNPNAKEFNPRSFSQ, F = wild type
[9] = prey ATXN2, peptide TLNPNAKEFNPRSFSQ, N = wild type
[10] = prey ATXN2, TLNPNAKEFNPRSF(averaged) over the two overlapping peptides

Substance: KSTLNPNAKEFNPRSF S2I (KITLNPNAKEFNPRSF)
- DMS-derived PSSM value, position S2 [1]: 0.01393

Substance: KSTLNPNAKEFNPRSF N12L (KSTLNPNAKEFLPRSF)
- DMS-derived PSSM value, position N12 [2]: 0

Substance: KSTLNPNAKEFNPRSF R14N (KSTLNPNAKEFNPNSF)
- DMS-derived PSSM value, position R14 (prey ATXN2, peptide KSTLNPNAKEFNPRSF, R = wild type): 0.007229

Substance: TLNPNAKEFNPRSF(averaged) N5Q (TLNPQAKEFNPRSF)
- DMS-derived PSSM value (averaged), position N5 [3]: 0.02375

Substance: KSTLNPNAKEFNPRSF P6A (KSTLNANAKEFNPRSF)
- DMS-derived PSSM value, position P6 [4]: 0

Substance: TLNPNAKEFNPRSF(averaged) P4N (TLNNNAKEFNPRSF)
- DMS-derived PSSM value (averaged), position P4 [5]: 0.0005247

Substance: TLNPNAKEFNPRSF(averaged) S13N (TLNPNAKEFNPRNF)
- DMS-derived PSSM value (averaged), position S13 (prey ATXN2, TLNPNAKEFNPRSF(averaged) over the two overlapping peptides, S = wild type): 0.08567

Substance: TLNPNAKEFNPRSF(averaged) F14L (TLNPNAKEFNPRSL)
- DMS-derived PSSM value (averaged), position F14 [6]: 0.193

Substance: KSTLNPNAKEFNPRSF N7Q (KSTLNPQAKEFNPRSF)
- DMS-derived PSSM value, position N7 [2]: 0.04334

Substance: TLNPNAKEFNPRSFSQ S15H (TLNPNAKEFNPRSFHQ)
- DMS-derived PSSM value, position S15 (prey ATXN2, peptide TLNPNAKEFNPRSFSQ, S = wild type): 0.01215

Substance: TLNPNAKEFNPRSFSQ A6N (TLNPNNKEFNPRSFSQ)
- DMS-derived PSSM value, position A6 (prey ATXN2, peptide TLNPNAKEFNPRSFSQ, A = wild type): 0

Substance: TLNPNAKEFNPRSFSQ E8G (TLNPNAKGFNPRSFSQ)
- DMS-derived PSSM value, position E8 (prey ATXN2, peptide TLNPNAKEFNPRSFSQ, E = wild type): 0

Substance: TLNPNAKEFNPRSF(averaged) P11H (TLNPNAKEFNHRSF)
- DMS-derived PSSM value (averaged), position P11 [5]: 0.07852

Substance: TLNPNAKEFNPRSF(averaged) K7S (TLNPNASEFNPRSF)
- DMS-derived PSSM value (averaged), position K7 (prey ATXN2, TLNPNAKEFNPRSF(averaged) over the two overlapping peptides, K = wild type): 0.03571

Substance: KSTLNPNAKEFNPRSF S2R (KRTLNPNAKEFNPRSF)
- DMS-derived PSSM value, position S2 [1]: 0.0005784

Substance: KSTLNPNAKEFNPRSF N5S (KSTLSPNAKEFNPRSF)
- DMS-derived PSSM value, position N5 [2]: 0.0715

Substance: KSTLNPNAKEFNPRSF A8L (KSTLNPNLKEFNPRSF)
- DMS-derived PSSM value, position A8 (prey ATXN2, peptide KSTLNPNAKEFNPRSF, A = wild type): 0

Substance: TLNPNAKEFNPRSF(averaged) E8V (TLNPNAKVFNPRSF)
- DMS-derived PSSM value (averaged), position E8 [7]: 0.141

Substance: TLNPNAKEFNPRSF(averaged) N10K (TLNPNAKEFKPRSF)
- DMS-derived PSSM value (averaged), position N10 [3]: 0.01006

Substance: KSTLNPNAKEFNPRSF N7T (KSTLNPTAKEFNPRSF)
- DMS-derived PSSM value, position N7 [2]: 0.001519

Substance: TLNPNAKEFNPRSF(averaged) F9W (TLNPNAKEWNPRSF)
- DMS-derived PSSM value (averaged), position F9 [6]: 0.4279

Substance: TLNPNAKEFNPRSF(averaged) N10P (TLNPNAKEFPPRSF)
- DMS-derived PSSM value (averaged), position N10 [3]: 0.03074

Substance: TLNPNAKEFNPRSFSQ F14K (TLNPNAKEFNPRSKSQ)
- DMS-derived PSSM value, position F14 [8]: 0.003921

Substance: TLNPNAKEFNPRSFSQ F9P (TLNPNAKEPNPRSFSQ)
- DMS-derived PSSM value, position F9 [8]: 0

Substance: TLNPNAKEFNPRSFSQ N5V (TLNPVAKEFNPRSFSQ)
- DMS-derived PSSM value, position N5 [9]: 0.09342

Substance: TLNPNAKEFNPRSF(averaged) A6Y (TLNPNYKEFNPRSF)
- DMS-derived PSSM value (averaged), position A6 (prey ATXN2, TLNPNAKEFNPRSF(averaged) over the two overlapping peptides, A = wild type): 0

Substance: TLNPNAKEFNPRSF(averaged) T1G (GLNPNAKEFNPRSF)
- DMS-derived PSSM value (averaged), position T1 (prey ATXN2, TLNPNAKEFNPRSF(averaged) over the two overlapping peptides, T = wild type): 0.09

Substance: TLNPNAKEFNPRSFSQ N5L (TLNPLAKEFNPRSFSQ)
- DMS-derived PSSM value, position N5 [9]: 0.06159

Substance: TLNPNAKEFNPRSF(averaged) L2G (TGNPNAKEFNPRSF)
- DMS-derived PSSM value (averaged), position L2 [10]: 0

Substance: TLNPNAKEFNPRSFSQ P11H (TLNPNAKEFNHRSFSQ)
- DMS-derived PSSM value, position P11 (prey ATXN2, peptide TLNPNAKEFNPRSFSQ, P = wild type): 0.157

Substance: TLNPNAKEFNPRSF(averaged) L2Y (TYNPNAKEFNPRSF)
- DMS-derived PSSM value (averaged), position L2 [10]: 0.0552

Substance: KSTLNPNAKEFNPRSF P13R (KSTLNPNAKEFNRRSF)
- DMS-derived PSSM value, position P13 [4]: 0

Substance: TLNPNAKEFNPRSF(averaged) E8F (TLNPNAKFFNPRSF)
- DMS-derived PSSM value (averaged), position E8 [7]: 0

Substance: TLNPNAKEFNPRSF(averaged) P4V (TLNVNAKEFNPRSF)
- DMS-derived PSSM value (averaged), position P4 [5]: 0.4012

Substance: TLNPNAKEFNPRSFSQ F9R (TLNPNAKERNPRSFSQ)
- DMS-derived PSSM value, position F9 [8]: 0

Substance: TLNPNAKEFNPRSFSQ R12M (TLNPNAKEFNPMSFSQ)
- DMS-derived PSSM value, position R12 (prey ATXN2, peptide TLNPNAKEFNPRSFSQ, R = wild type): 0.04074

Substance: TLNPNAKEFNPRSFSQ F9Y (TLNPNAKEYNPRSFSQ)
- DMS-derived PSSM value, position F9 [8]: 0.02013

Substance: TLNPNAKEFNPRSF(averaged) P11E (TLNPNAKEFNERSF)
- DMS-derived PSSM value (averaged), position P11 [5]: 0.00334
